Laboratory results reported in patent publication US12612363B2, “Recrystallisation of 5-methoxy-N,N-dimethyltryptamine(5-MeO-DMT)” (GH RESEARCH IRELAND LIMITED, priority 2019, dated 2026).
Converted amounts (≈) assume the structure as drawn.

Test: Solubility screen of 5-MeO-DMT in solvents at room temperature and reflux
Settings: for solubility: thermodynamic from solid
Procedure: A solubility screen of 5-MeO-DMT was performed on a number of solvents at both room temperature and reflux.

Q: What does the source list for `COc1ccc2[nH]cc(CCN(C)C)c2c1` [5-MeO-DMT, 5-Methoxy-N,N-dimethyltryptamine]?
A: solubility (2-methyltetrahydrofuran, organic solvent or mixture, 5-MeO-DMT Solubility Ambient, solvent 2-Methyltetrahydrofuran (2-MeTHF), ambient (room temperature)): 250 mg/mL (≈ 1150 mM); solubility (acetone, organic solvent or mixture, 5-MeO-DMT Solubility Ambient, solvent Acetone, ambient (room temperature)): 530 mg/mL (≈ 2430 mM); solubility (ethanol, organic solvent or mixture, 5-MeO-DMT Solubility Ambient, solvent Ethanol, ambient (room temperature)): 340 mg/mL (≈ 1560 mM); solubility (ethyl acetate, organic solvent or mixture, 5-MeO-DMT Solubility Ambient, solvent Ethyl Acetate, ambient (room temperature)): 260 mg/mL (≈ 1190 mM); solubility (heptanes, organic solvent or mixture, 5-MeO-DMT Solubility Ambient, solvent Heptanes, ambient (room temperature)): < 50 mg/mL; solubility (heptanes, organic solvent or mixture, 5-MeO-DMT Solubility Reflux, solvent Heptanes, reflux): < 50 mg/mL; solubility (in words) (in MTBE at room temperature): not observed to be soluble; solubility (in words) (in MTBE when the temperature of the solvent was increased): very soluble; solubility (in words) (in heptanes): Poor solubility; solubility (in words) (in water): Poor solubility; solubility (isopropanol, organic solvent or mixture, 5-MeO-DMT Solubility Ambient, solvent Isopropanol (IPA), ambient (room temperature)): 180 mg/mL (≈ 825 mM); solubility (isopropyl acetate, organic solvent or mixture, 5-MeO-DMT Solubility Ambient, solvent Isopropyl acetate (IPAc), ambient (room temperature)): 210 mg/mL (≈ 962 mM); solubility (methyl tert-butyl ether, organic solvent or mixture, 5-MeO-DMT Solubility Ambient, solvent Methyl tert-butyl ether (MTBE), ambient (room temperature)): < 50 mg/mL; solubility (methyl tert-butyl ether, organic solvent or mixture, 5-MeO-DMT Solubility Reflux, solvent Methyl tert-butyl ether (MTBE), reflux): 420 mg/mL (≈ 1920 mM); 5-MeO-DMT Solubility Ambient (vols.) (solvent 2-Methyltetrahydrofuran (2-MeTHF), ambient (room temperature)): 4.0 vols.; 5-MeO-DMT Solubility Ambient (vols.) (solvent Acetone, ambient (room temperature), volumes of solvent for complete dissolution of 200 mg): 1.9 vols.; 5-MeO-DMT Solubility Ambient (vols.) (solvent Ethanol, ambient (room temperature)): 2.9 vols.; 5-MeO-DMT Solubility Ambient (vols.) (solvent Ethyl Acetate, ambient (room temperature)): 3.9 vols.; 5-MeO-DMT Solubility Ambient (vols.) (solvent Heptanes, ambient (room temperature)): >20 vols.; 5-MeO-DMT Solubility Reflux (vols.) (solvent Heptanes, reflux): >20 vols.; 5-MeO-DMT Solubility Ambient (vols.) (solvent Isopropanol (IPA), ambient (room temperature)): 5.6 vols.; 5-MeO-DMT Solubility Ambient (vols.) (solvent Isopropyl acetate (IPAc), ambient (room temperature)): 4.8 vols.; 5-MeO-DMT Solubility Ambient (vols.) (solvent Methyl tert-butyl ether (MTBE), ambient (room temperature)): >20 vols.; 5-MeO-DMT Solubility Reflux (vols.) (solvent Methyl tert-butyl ether (MTBE), reflux): 2.4 vols.; 5-MeO-DMT Solubility Ambient (vols.) (solvent Toluene, ambient (room temperature)): 5.1 vols.; 5-MeO-DMT Solubility Ambient (vols.) (solvent Water, ambient (room temperature)): >20 vols.; 5-MeO-DMT Solubility Reflux (vols.) (solvent Water, reflux): >20 vols.; solubility (toluene, organic solvent or mixture, 5-MeO-DMT Solubility Ambient, solvent Toluene, ambient (room temperature)): 200 mg/mL (≈ 916 mM); solubility (water, 100 °C, 5-MeO-DMT Solubility Reflux, solvent Water, reflux): < 50 mg/mL; solubility (water, 5-MeO-DMT Solubility Ambient, solvent Water, ambient (room temperature)): < 50 mg/mL
